Reference: publication PMC6032384 (International Journal of Molecular Sciences, 2018)
Where two headings read alike, the source gives them in different places.

Assays:
[1] = tested on: wild-type immortalized mouse embryonic fibroblasts (WT SV40 MEF); assay: Alamar blue (AB) cytotoxicity assay, WT SV40 MEF; type: cell-based; conditions: 72 h
[2] = tested on: BAD gene knockout immortalized mouse embryonic fibroblasts (BAD KO SV40 MEF); assay: Alamar blue (AB) cytotoxicity assay, BAD KO SV40 MEF; type: cell-based; conditions: 72 h
[3] = tested on: HL-60 cells; assay: ROS levels (DCF-DA, flow cytometry); type: cell-based, human; conditions: 1 or 3 h of incubation, data not shown
Protocol: The induction of ROS production is also an important mechanism for inducing apoptosis.
(§1) Light scattering features were determined by flow cytometry. The internucleosomal DNA fragmentation and cell cycle distribution were determined according to Nicoletti et al.. For apoptosis measurements, a FITC Annexin V Apoptosis Detection Kit I (BD Biosciences, San Jose, CA, USA) was used, and the analysis was performed, according to the manufacturer’s instructions. A protection assay using the pan-caspase inhibitor Z-VAD(OMe)-FMK (Cayman Chemical, Ann Arbor, MI, USA) was also evaluated. The mitochondrial transmembrane potential was determined by the retention of the dye rhodamine 123 [28]. The levels of ROS were measured, as previously described, using 2′,7′-dichlorofluorescin diacetate (DCF-DA, Sigma-Aldrich Co.). At least 1 × 10^4 events were recorded per sample using a BD LSRFortessa cytometer along with BD FACSDiva Software (BD Biosciences) and Flowjo Software 10 (Flowjo LCC, Ashland, OR, USA). The cellular debris was omitted from the analysis.

[4] = tested on: MRC-5 (human lung fibroblast); assay: Alamar blue (AB) cytotoxicity assay, MRC-5 noncancerous cells; type: cell-based; conditions: MRC5 non-cancer cells, 72 h
[5] = tested on: caspase-3 in HL-60 cells; assay: Caspase-3 colorimetric assay; type: cell-based, human; conditions: 48 h
Protocol: (§2) Figure 6 Caspase-3 activity (A), assessed by a colorimetric assay after 48 h of incubation, and mitochondrial membrane potential (B), evaluated by flow cytometry using rhodamine 123 staining after 24 h of incubation, of HL-60 cells treatment with the [Ru(PPh3)2(Thy)(bipy)]PF6 complex (CRT). […] Data are presented as the mean ± S.E.M. of at the least three independent experiments. * p < 0.05 as compared with the negative control by ANOVA, followed by the Student Newman-Keuls test.
The cell lines that were used in this study were obtained from the American Type Culture Collection (ATCC) and were cultured, as described previously. Primary PBMCs were obtained with informed consent (# 031019/2013). All the cells were free of contamination, and the cell viability was determined by the TBE or AB assay, which were performed following the procedure that was described previously. The cell morphology analysis was performed using cytospin and May-Grunwald-Giemsa staining as described previously. To investigate caspase-3 activation, a caspase-3 colorimetric assay kit (Sigma-Aldrich Co.) was used.

[6] = tested on: HL-60 cells; assay: Annexin V-FITC/PI apoptosis assay by flow cytometry; type: cell-based, human
Protocol: Additionally, annexin V, which is a Ca^2+-dependent protein with high affinity for phosphatidylserine, was conjugated to a fluorochrome to detect phosphatidylserine exposure using flow cytometry. Since phosphatidylserine exposure precedes the loss of membrane integrity, annexin V staining was used along with the dye PI to identify early and late apoptotic cells, as well as necrotic cells. Therefore, annexin V-FITC/PI double staining was applied to HL-60 cells that were treated with the [Ru(PPh3)2(Thy)(bipy)]PF6 complex after 24 and 48 h of incubation, and the numbers of viable, early apoptotic, late apoptotic, and necrotic cells were quantified by flow cytometry (Figure 5).
Figure 5 Evaluation of the apoptosis induced by the [Ru(PPh3)2(Thy)(bipy)]PF6 complex (CRT) in HL-60 cells determined by flow cytometry using annexin V-FITC/PI staining after 24 and 48 h of incubation. (A) Representative flow cytometry dot plots. (B) Apoptotic cell quantification (annexin V-FITC positive cells). […] Data are presented as the mean ± S.E.M. of at the least three independent experiments. * p < 0.05 as compared with the negative control by ANOVA, followed by the Student Newman-Keuls test. […] Its quadrant percentages are just as hard to read: 24 h about Q1 0.640%, Q2 5.23%, Q4 85.6%, Q3 8.47%; 48 h about Q1 0.430%, Q2 3.07%, Q4 91.0%, Q3 5.52%.
as §1

[7] = tested on: HL-60 cells; assay: Protection assay with pan-caspase inhibitor Z-VAD(OMe)-FMK (annexin V-FITC/PI); type: cell-based, human; conditions: 50 µM Z-VAD(OMe)-FMK 2 h, then 4 μM CRT 48 h
Description: Loss of the mitochondrial transmembrane potential is a critical step in intrinsic apoptosis, and activation of caspase-3 (an executioner caspase) favors DNA fragmentation.
Figure 7 Prevention of the apoptosis induced by the [Ru(PPh3)2(Thy)(bipy)]PF6 complex (CRT) in HL-60 cells by a pan-caspase inhibitor (Z-VAD(OMe)-FMK), as assessed by flow cytometry using annexin V-FITC/PI staining. (A) Representative flow cytometry dot plots. (B) Apoptotic cell quantification (annexin V-FITC positive cells). The cells were pretreated for 2 h with 50 µM Z-VAD(OMe)-FMK and then incubated with 4 μM CRT for 48 h. […]
as §1, with “For apoptosis measurements, a FITC Annexin V Apoptosis Detection Kit I (BD Biosciences, San Jose, CA, USA) was used, and the analysis was performed, according to the manufacturer’s instructions.” left out, “The cellular debris was omitted from the analysis.” left out

[8] = tested on: HL-60 cells; assay: Mitochondrial transmembrane potential (rhodamine 123, flow cytometry); type: cell-based, human; conditions: rhodamine 123, 24 h
Protocol: as §2
as §1, with “The cellular debris was omitted from the analysis.” left out

[9] = tested on: PBMC (human peripheral blood mononuclear cell); assay: Alamar blue (AB) cytotoxicity assay, PBMC noncancerous cells; type: cell-based; conditions: PBMC non-cancer cells, 72 h
[10] = tested on: HL-60 cells; assay: Cell morphology (May-Grunwald-Giemsa staining) and light scattering by flow cytometry; type: cell-based, human; conditions: 24 and 48 h
[11] = tested on: HL-60 cells; type: cell-based, human
Protocol: The internucleosomal DNA fragmentation and cell cycle distribution were assessed in HL-60 cells after 24 and 48 h of incubation with the [Ru(PPh3)2(Thy)(bipy)]PF6 complex in a DNA content-based assay using the dye propidium iodide (PI) and flow cytometry (Table 3). All DNA with a subdiploid size (sub-G0/G1) were considered to be fragmented. At concentrations of 1, 2, and 4 μM, the complex led to, respectively, 19.4%, 30.1%, and 36.2% DNA fragmentation after 24 h of incubation and to 12.5%, 26.7%, and 58.2% DNA fragmentation after 48 h of incubation.
as §1

[12] = tested on: B16-F10, HepG2, K562, and HL-60; parameters: method as in doi:10.1039/C7NJ04368F; conditions: small panel of cancer cells (B16-F10, HepG2, K562, and HL-60), previous study; cited from earlier work
[13] = tested on: tested cancer cell lines; assay: Alamar blue cytotoxicity, summary over the tested cancer cell lines; type: cell-based; conditions: AB assay, 72 h, most of the tested cancer cell lines
[14] = tested on: HL-60 cells; conditions: TBE

O=c1[nH]cc(F)c(=O)[nH]1 [5-fluorouracil]
IC50 ([1]; Mus musculus, Fibroblast): 5.7 µM
IC50 ([2]; Mus musculus, Fibroblast): 11.2 µM

Cc1c[nH]c(=O)[n-]c1=O.F[P-](F)(F)(F)(F)F.[Ru+2].c1ccc(-c2ccccn2)nc1.c1ccc(P(c2ccccc2)c2ccccc2)cc1.c1ccc(P(c2ccccc2)c2ccccc2)cc1 [CRT, [Ru(PPh3)2(Thy)(bipy)]PF6]
ROS levels [3]: did not induce a significant increase
IC50 [4]: 11.5 µM
Caspase-3 activity [5]: induced activation of caspase-3
Effect of pretreatment with antioxidant N-acetyl-L-cysteine (NAC) on the increase in apoptotic cells ([6]; NAC pretreatment, data not shown): did not prevent
Percentage of apoptotic cells (early apoptotic cells + late apoptotic cells) ([6]; annexin V-FITC/PI, 24 and 48 h): significant increase
Percentage of necrotic cells ([6]; annexin V-FITC/PI, 24 and 48 h): No significant increase
Effect of pan-caspase inhibitor Z-VAD(OMe)-FMK on the complex-induced increase in apoptotic cells [7]: partially prevented
IC50 [1]: 2.2 µM
Mitochondrial transmembrane potential [8]: caused the loss of the mitochondrial transmembrane potential
IC50 [9]: 1.7 µM
Cell morphology ([10]; May-Grunwald-Giemsa-stained cells): cell morphology changes that were associated with apoptosis
Forward light scatter (FSC), cell shrinkage ([10]; flow cytometry): decrease
Side scatter (SCC), nuclear condensation ([10]; flow cytometry): increase
DNA content G0/G1 ([11]; 1 µM, 24 h): 30.5 ± 4.8 %
DNA content G2/M ([11]; 1 µM, 24 h): 18.5 ± 0.7%
DNA content S ([11]; 1 µM, 24 h): 11.5 ± 1.7%
DNA content Sub-G0/G1 (DNA fragmentation) ([11]; 1 µM, 24 h): 19.4 ± 3.9 %
DNA content Sub-G0/G1 (DNA fragmentation) ([11]; 1 µM, 24 h, listed as [Ru(PPh3)2(Thy)(bipy)]PF6 complex): 19.4%
DNA content G0/G1 ([11]; 1 µM, 48 h): 41.2 ± 9.6 %
DNA content G2/M ([11]; 1 µM, 48 h): 10.8 ± 2.5%
DNA content S ([11]; 1 µM, 48 h): 11.2 ± 2.4%
DNA content Sub-G0/G1 (DNA fragmentation) ([11]; 1 µM, 48 h): 12.5 ± 3.5 %
DNA content Sub-G0/G1 (DNA fragmentation) ([11]; 1 µM, 48 h, listed as [Ru(PPh3)2(Thy)(bipy)]PF6 complex): 12.5%
DNA content G0/G1 ([11]; 2 µM, 24 h): 38.7 ± 2.2 %
DNA content G2/M ([11]; 2 µM, 24 h): 17.9 ± 4.4%
DNA content S ([11]; 2 µM, 24 h): 7.8 ± 1.5 %
DNA content Sub-G0/G1 (DNA fragmentation) ([11]; 2 µM, 24 h): 30.1 ± 7.9 %
DNA content Sub-G0/G1 (DNA fragmentation) ([11]; 2 µM, 24 h, listed as [Ru(PPh3)2(Thy)(bipy)]PF6 complex): 30.1%
DNA content G0/G1 ([11]; 2 µM, 48 h): 42.6 ± 4.9 %
DNA content G2/M ([11]; 2 µM, 48 h): 14.4 ± 2.5%
DNA content S ([11]; 2 µM, 48 h): 10.5 ± 0.8 %
DNA content Sub-G0/G1 (DNA fragmentation) ([11]; 2 µM, 48 h): 26.7 ± 7.0 %
DNA content Sub-G0/G1 (DNA fragmentation) ([11]; 2 µM, 48 h, listed as [Ru(PPh3)2(Thy)(bipy)]PF6 complex): 26.7%
DNA content G0/G1 ([11]; 4 µM, 24 h): 36.3 ± 3.1 %
DNA content G2/M ([11]; 4 µM, 24 h): 13.2 ± 4.1%
DNA content S ([11]; 4 µM, 24 h): 10.4 ± 2.4%
DNA content Sub-G0/G1 (DNA fragmentation) ([11]; 4 µM, 24 h): 36.2 ± 9.5 %
DNA content Sub-G0/G1 (DNA fragmentation) ([11]; 4 µM, 24 h, listed as [Ru(PPh3)2(Thy)(bipy)]PF6 complex): 36.2%
DNA content G0/G1 ([11]; 4 µM, 48 h): 28.4 ± 5.9 %
DNA content G2/M ([11]; 4 µM, 48 h): 5.5 ± 2.6 %
DNA content S ([11]; 4 µM, 48 h): 4.4 ± 1.2 %
DNA content Sub-G0/G1 (DNA fragmentation) ([11]; 4 µM, 48 h): 58.2 ± 8.8 %
DNA content Sub-G0/G1 (DNA fragmentation) ([11]; 4 µM, 48 h, listed as [Ru(PPh3)2(Thy)(bipy)]PF6 complex): 58.2%
IC50 [12]: < 2 µM
IC50 [13]: < 3 µM
Reduction of the number of viable cells ([14]; 1 μM, 24 h): 32.5%
Reduction of the number of viable cells ([14]; 1 μM, 48 h): 62.6%
Reduction of the number of viable cells ([14]; 2 μM, 24 h): 49.1%
Reduction of the number of viable cells ([14]; 2 μM, 48 h): 66.6%
Reduction of the number of viable cells ([14]; 4 μM, 24 h): 59.1%
Reduction of the number of viable cells ([14]; 4 μM, 48 h): 73.4%
Number of nonviable cells ([14]; 1, 2 and 4 μM, 24 and 48 h): No significant increase
IC50 [2]: 2.4 µM
